The record followed here is ChEMBL document CHEMBL5126668, “The Invention of WM382, a Highly Potent PMIX/X Dual Inhibitor toward the Treatment of Malaria” (ACS Med Chem Lett, 2022).

Values after ≈ are worked out from the molar mass of the structure shown.

The test system of series [1] is Plasmodium falciparum. Nature of the series: Antimalarial activity against asexual blood stage Plasmodium falciparum infected in RBC measured after 72 hrs by LDH release assay. The conditions noted are these: Erythrocyte. The format is functional, organism-based. (In general: Release of lactate dehydrogenase indicates damage to the cell membrane.)
The target of series [2] is Plasmepsin X (Plasmodium falciparum (isolate 3D7)) (UniProt Q8IAS0). Nature of the series: Inhibition of Plasmodium falciparum 3D7 HA-glms-tagged PMX at 10 nM using DABCYL-HSFIQEGKEE-EDANS as substrate measured after 2 hrs by FRET assay relative to control.
In series [3] the target is T1, Plasmepsin IX (Plasmodium falciparum) (UniProt Q8ILG2).
T1 sequence (whole entry): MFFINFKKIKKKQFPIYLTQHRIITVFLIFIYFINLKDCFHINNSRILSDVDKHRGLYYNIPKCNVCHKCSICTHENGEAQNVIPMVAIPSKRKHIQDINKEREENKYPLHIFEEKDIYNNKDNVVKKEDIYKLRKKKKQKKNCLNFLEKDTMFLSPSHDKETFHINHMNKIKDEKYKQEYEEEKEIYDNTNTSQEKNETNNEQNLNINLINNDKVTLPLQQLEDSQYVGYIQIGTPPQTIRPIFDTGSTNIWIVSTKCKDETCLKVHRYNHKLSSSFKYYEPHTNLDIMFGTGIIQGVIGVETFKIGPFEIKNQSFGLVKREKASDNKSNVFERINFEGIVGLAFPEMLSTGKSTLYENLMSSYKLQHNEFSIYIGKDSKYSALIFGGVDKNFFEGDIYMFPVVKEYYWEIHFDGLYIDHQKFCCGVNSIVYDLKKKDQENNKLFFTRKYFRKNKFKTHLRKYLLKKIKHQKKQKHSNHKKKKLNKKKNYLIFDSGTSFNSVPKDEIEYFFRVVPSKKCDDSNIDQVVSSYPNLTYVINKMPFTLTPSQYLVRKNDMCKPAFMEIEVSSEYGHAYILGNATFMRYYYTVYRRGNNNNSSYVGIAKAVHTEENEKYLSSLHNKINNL
Nature of the series: Inhibition of Plasmodium falciparum 3D7 HA-glms-tagged PMIX at 10 nM using DABCYL-HSFIQEGKEE-EDANS as substrate measured after 2 hrs by FRET assay relative to control.

Another series has as its target Plasmepsin X (Plasmodium falciparum (isolate 3D7), UniProt Q8IAS0). Nature of the series: Inhibition of Plasmodium falciparum 3D7 HA-glms-tagged PMX using DABCYL-HSFIQEGKEE-EDANS as substrate measured after 2 hrs by FRET assay.
A further series has as its target T2, Plasmepsin IX (Plasmodium falciparum, UniProt Q8ILG2).
T2 sequence (Q8ILG2 whole entry): T1 sequence (whole entry)
In words: Inhibition of Plasmodium falciparum 3D7 HA-glms-tagged PMIX using DABCYL-HSFIQEGKEE-EDANS as substrate measured after 2 hrs by FRET assay.

A short description of series [4]: Lipophilicity, log D of compound at pH 7.4. In kind it is physicochemical. The conditions noted are these: buffer.
A short description of series [5]: Kinetic solubility of the compound. The conditions noted are these: read-out: Kinetic_solubility. In kind it is physicochemical.
A short description of series [6]: Mean residence time in rat. The settings on record: in vivo. In kind it is ADME.
Series [7] is described as follows: Plasma clearance in rat. In kind it is ADME.
The nature of series [8]: Unbound clearance in rat. The format is ADME. The conditions noted are these: in vivo.
Series [9] is described as follows: Volume of distribution in rat. In kind it is ADME. The conditions noted are these: in vivo.
A short description of series [10]: Unbound volume of distribution in rat. In kind it is ADME. The settings on record: in vivo.
Series [11] can be described thus: Oral bioavailability in rat. The settings on record: in vivo. In kind it is ADME, organism-based.
Series [12] is described as follows: Mean residence time in mouse. The format is ADME, organism-based. The settings on record: in vivo.
A short description of series [13]: Plasma clearance in mouse. The format is ADME, organism-based.
Series [14] is described as follows: Unbound plasma clearance in mouse. The format is ADME, organism-based. The conditions noted are these: in vivo.
Series [15] can be described thus: Unbound volume of distribution in mouse. In kind it is ADME, organism-based. The conditions noted are these: in vivo.
Series [16] concerns Plasmodium falciparum. Nature of the series: Antimalarial activity Plasmodium falciparum Dd2 assessed as EC90 fold pressure measured up to 62 days by microscopy. The format is functional. The settings on record: Dd2, 1488 h, time <= 62 day.
The test system of series [17] is Plasmodium falciparum. Nature of the series: Antimalarial activity Plasmodium falciparum Dd2 assessed as minimum inoculum for resistance measured up to 62 days by microscopy. The format is functional. The settings on record: time <= 62 day.

Plasmepsin X (Plasmodium falciparum (isolate 3D7)), sequence (Q8IAS0 whole entry): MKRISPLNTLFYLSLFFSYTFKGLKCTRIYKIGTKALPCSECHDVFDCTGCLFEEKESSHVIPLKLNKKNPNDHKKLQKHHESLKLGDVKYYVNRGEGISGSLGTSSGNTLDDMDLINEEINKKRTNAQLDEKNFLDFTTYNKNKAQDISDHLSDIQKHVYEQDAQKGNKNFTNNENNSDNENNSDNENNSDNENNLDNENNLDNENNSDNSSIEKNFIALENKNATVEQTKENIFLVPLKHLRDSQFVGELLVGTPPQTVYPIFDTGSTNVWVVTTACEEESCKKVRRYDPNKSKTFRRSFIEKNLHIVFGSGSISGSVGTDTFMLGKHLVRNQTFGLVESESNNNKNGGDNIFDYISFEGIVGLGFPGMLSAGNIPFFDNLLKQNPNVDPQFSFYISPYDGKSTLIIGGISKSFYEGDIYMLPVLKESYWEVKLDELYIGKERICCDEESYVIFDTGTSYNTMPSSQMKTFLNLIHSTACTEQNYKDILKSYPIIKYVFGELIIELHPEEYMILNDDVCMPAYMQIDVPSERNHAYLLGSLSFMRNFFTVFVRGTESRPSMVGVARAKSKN
Plasmepsin X, sequence (Q8IAS0 whole entry): as above

The EC50 is the concentration at which the effect is half-maximal. Higher therefore signals a need for much substance. The inhibition is the drop in the measured response relative to a control, in per cent. Consider `CCC1(CC)CC(=O)N([C@@H]2CCOc3ccc(C(=O)NC4CC(=O)Oc5ccccc54)cc32)C(=N)N1` (mixture of isomers), for which the EC50 with Plasmodium falciparum [1] came to 220 nM. Moreover, the inhibition in series [2] was 40%; in series [3], 12%.

The term IC50 denotes the midpoint of a concentration-inhibition curve. Low values mean greater potency in that assay, high ones weaker potency in that assay. The logD is the decadic logarithm of the distribution of all forms, ionised or not, between an organic phase and buffer at a given pH. Low readings indicate a more hydrophilic compound, high ones a more lipophilic compound. Usually MRT stands for the average time that molecules of a dose stay in the body. The term clearance denotes a measure of how efficiently the substance is removed, as volume per time. Broadly, the Vd is the apparent volume that relates the amount in the body to the concentration in plasma or blood. Broadly, the bioavailability is the share of a dose that reaches the circulation, judged against a reference dose that is usually intravenous. A lower bioavailability goes with poor availability. As usually defined, the EC90 is the concentration needed for an effect of 90%. Take `CCC1(CC)CC(=O)N([C@@H]2CCOc3ccc(C(=O)N[C@H]4CC(C)(C)Oc5ccccc54)cc32)C(=N)N1`: it took 0.4 nM to reach a half-maximal effect in the series with Plasmodium falciparum [1] (EC50). Moreover, the IC50 was 0.03 nM at Plasmepsin X and 1.4 nM at Plasmepsin IX. Further, the logD in series [4] stood at 2.5. In addition, in series [5], the solubility kinetic amounted to 0.1 µM (≈ 0.0505 µg/mL). In addition, the mean residence time (MRT) is 3.7 h in series [6] and 2.5 h in [12]. Also, the clearance in series [7] and in series [13] was 42 mL/min/kg throughout. In addition, the CL free in [8] came to 1022 mL/min/kg; in [14] it was 774 mL/min/kg. In [9], the Vd worked out at 9.4 L/kg. Moreover, the Vdu in series [10] is 222 L/kg; in series [15] it was 120 L/kg. In [11], this molecule yielded a bioavailability of 8%. The EC90 in the series with Plasmodium falciparum [16] came to 1.5 nM. For the same molecule, in the series with Plasmodium falciparum [17], the Activity was more than 9.
